Laboratory results reported in US11419852B2, “Beta-lactam compounds or salts thereof for use in long-acting prevention or treatment of a glucose metabolism disorder” (GLYCOLYSIS BIOMED CO., LTD., priority 2019, dated 2022).
Marks after values point to notes of the source that are not given here.

Experiments:
Type in all cases: in vivo
[1] = Food and water intake of mice; settings: Ex 3: db/db mice, daily dosing 3 weeks at doses of Table 10
Method: Four to five weeks old db/db mice (BKS.Cg-Dock7^m+/+Lepr^db/JNarl) and m/m mice (BKS.Cg-Dock7^m+/Dock7^m+) were obtained from National Laboratory Animal Center ([…], Taiwan). […] PMI Nutrition International, Brentwood, Mo.) and water ad libitum. […] The mouse body weight (bw) and the amounts of water and food intake were recorded weekly for the entire study period.

[2] = test system: db/db mice; assay: Fasting plasma glucose (FPG) measurement; settings: Ex 2 G3 db/db, Met oral 0.3 mg/g bw/day, dosing 6 weeks
Method: Four to five weeks old db/db mice (BKS.Cg-Dock7^m+/+Lepr^db/JNarl) and m/m mice (BKS.Cg-Dock7^m+/Dock7^m+) were obtained from National Laboratory Animal Center (Nangang, Taipei, Taiwan). These animals were maintained in a facility with a 12-h dark-light cycle at 24±2° C. and 65±5% humidity and were provided food (No. 5001; PMI Nutrition International, Brentwood, Mo.) and water ad libitum. For experiments, the average body weight of m/m mice was approximately 20 g, and that of db/db mice was approximately 30 g.
For each mouse, blood was sampled from the tail vein and measured for FPG levels using a blood glucose meter (OneTouch UltraEasy, Johnson & Johnson, USA) at a predestined time point.

[3] = test system: db/db mice; assay: Histopathological assessment (H&E stain); settings: Ex 2, metformin-treated vs ertapenem-treated mice
Source text: For histopathological assessment, all mice were sacrificed by 95% CO2 asphyxiation at the end of the study period. Their brain, liver, kidney, pancreas, and epididymal fat pads were removed, fixed in 10% phosphate-buffered formalin, and embedded in paraffin. Tissues embedded in paraffin were cut into […] sections that were then stained with hematoxylin-eosin (i.e., H&E stain).

[4] = test system: db/db mice; assay: Oral glucose tolerance test (OGTT); parameters: OGTT AUC: unit not given here
Method: Four to five weeks old db/db mice (BKS.Cg-Dock7^m+/+Lepr^db/JNarl) and m/m mice (BKS.Cg-Dock7^m+/Dock7^m+) were obtained from National Laboratory Animal Center ([…], Taiwan). […] PMI Nutrition International, Brentwood, Mo.) and water ad libitum. […] Blood was sampled from the tail vein, and FPG levels were measured and recorded as the basic blood glucose levels. […] The total area under the curve (AUC) in OGTT was plotted and calculated by the Area Under Coordinates Program (StatsToDo Server, Department of Obstetrics and Gynecology, Chinese University of Hong Kong).

## CN(C)C(=N)N=C(N)N [Met, metformin]
[1]
  Diet intake: 6.2 ± 1^c g/mice/day
  Water intake: 12.1 ± 1^d mL/mice/day
[2]; week 0
  Average FPG level: 160 ± 21^b
[2]; week 3
  Average FPG level: 136 ± 13^b
[2]; week 6
  Average FPG level: 222 ± 30^b
[2]; week 9
  Average FPG level: 310 ± 25^d
[2]; week 12
  Average FPG level: 267 ± 43^cd
[2]; week 16
  Average FPG level: 215 ± 27^b
[2]; week 18
  Average FPG level: 346 ± 50^b
[3]
  Kidney histological changes (tubular degeneration and necrosis, mineralization, hyaline cast): more apparent
[4]; Ex 2, most time points (ertapenem: weeks 6 and 12)
  Oral glucose tolerance (OGT) of db/db mice: no significant changes
[4]; Ex 2 G3 db/db, Met oral 0.3 mg/g bw/day, dosing 6 weeks, Week 6, 0 min
  Level of OGTT (blood glucose): 222 ± 30 mg/dL
[4]; Ex 2 G3 db/db, Met oral 0.3 mg/g bw/day, dosing 6 weeks, Week 6, 15 min
  Level of OGTT (blood glucose): 828 ± 33^bc
[4]; Ex 2 G3 db/db, Met oral 0.3 mg/g bw/day, dosing 6 weeks, Week 6, 30 min
  Level of OGTT (blood glucose): 832 ± 42^c
[4]; Ex 2 G3 db/db, Met oral 0.3 mg/g bw/day, dosing 6 weeks, Week 6, 60 min
  Level of OGTT (blood glucose): 710 ± 86^cd
[4]; Ex 2 G3 db/db, Met oral 0.3 mg/g bw/day, dosing 6 weeks, Week 6, 120 min
  Level of OGTT (blood glucose): 417 ± 42^cd
[4]; Ex 2 G3 db/db, Met oral 0.3 mg/g bw/day, dosing 6 weeks, Week 12, 0 min
  Level of OGTT (blood glucose): 267 ± 43^cd
[4]; Ex 2 G3 db/db, Met oral 0.3 mg/g bw/day, dosing 6 weeks, Week 12, 15 min
  Level of OGTT (blood glucose): 821 ± 47 mg/dL
[4]; Ex 2 G3 db/db, Met oral 0.3 mg/g bw/day, dosing 6 weeks, Week 12, 30 min
  Level of OGTT (blood glucose): 839 ± 40^cd
[4]; Ex 2 G3 db/db, Met oral 0.3 mg/g bw/day, dosing 6 weeks, Week 12, 60 min
  Level of OGTT (blood glucose): 741 ± 51^c
[4]; Ex 2 G3 db/db, Met oral 0.3 mg/g bw/day, dosing 6 weeks, Week 12, 120 min
  Level of OGTT (blood glucose): 564 ± 70^c
[4]; Ex 2 G3 db/db, Met oral 0.3 mg/g bw/day, dosing 6 weeks, Week 16, 0 min
  Level of OGTT (blood glucose): 215 ± 27 mg/dL
[4]; Ex 2 G3 db/db, Met oral 0.3 mg/g bw/day, dosing 6 weeks, Week 16, 15 min
  Level of OGTT (blood glucose): 611 ± 24 mg/dL
[4]; Ex 2 G3 db/db, Met oral 0.3 mg/g bw/day, dosing 6 weeks, Week 16, 30 min
  Level of OGTT (blood glucose): 703 ± 15 mg/dL
[4]; Ex 2 G3 db/db, Met oral 0.3 mg/g bw/day, dosing 6 weeks, Week 16, 60 min
  Level of OGTT (blood glucose): 637 ± 27 mg/dL
[4]; Ex 2 G3 db/db, Met oral 0.3 mg/g bw/day, dosing 6 weeks, Week 16, 120 min
  Level of OGTT (blood glucose): 444 ± 62^cd
[4]; Ex 2 G3 db/db, Met oral 0.3 mg/g bw/day, dosing 6 weeks, Week 18, 0 min
  Level of OGTT (blood glucose): 346 ± 58 mg/dL
[4]; Ex 2 G3 db/db, Met oral 0.3 mg/g bw/day, dosing 6 weeks, Week 18, 15 min
  Level of OGTT (blood glucose): 836 ± 58 mg/dL
[4]; Ex 2 G3 db/db, Met oral 0.3 mg/g bw/day, dosing 6 weeks, Week 18, 30 min
  Level of OGTT (blood glucose): 885 ± 73 mg/dL
[4]; Ex 2 G3 db/db, Met oral 0.3 mg/g bw/day, dosing 6 weeks, Week 18, 60 min
  Level of OGTT (blood glucose): 769 ± 55 mg/dL
[4]; Ex 2 G3 db/db, Met oral 0.3 mg/g bw/day, dosing 6 weeks, Week 18, 120 min
  Level of OGTT (blood glucose): 589 ± 67^bc
[4]; Ex 2 G3 db/db, Met oral 0.3 mg/g bw/day, dosing 6 weeks, week 6
  OGTT AUC: 1288 ± 93^c
[4]; Ex 2 G3 db/db, Met oral 0.3 mg/g bw/day, dosing 6 weeks, week 12
  OGTT AUC: 1391 ± 94^cd
[4]; Ex 2 G3 db/db, Met oral 0.3 mg/g bw/day, dosing 6 weeks, week 16
  OGTT AUC: 1143 ± 55^c
[4]; Ex 2 G3 db/db, Met oral 0.3 mg/g bw/day, dosing 6 weeks, week 18
  OGTT AUC: 1456 ± 85^b
[4]; Ex 3: db/db mice, daily dosing 3 weeks at doses of Table 10, Week 6 (stopped for 3 weeks)
  OGTT AUC: 1603 ± 46^c
[4]; Ex 3: db/db mice, daily dosing 3 weeks at doses of Table 10, Week 9 (stopped for 6 weeks)
  OGTT AUC: 1707 ± 43^f
